This is an account of results in US11390629B2, “1,5-disubstituted 1,2,3-triazoles are inhibitors of Rac/Cdc42 GTPases” (UNIVERSITY OF PUERTO RICO, priority 2016, dated 2022).

Assay [1] has as its system GFP-HER2-BM, MDA-MB-468, Hs578t, Mia-PaCa-2, SKOV3, AGS, NCI-N87, SH-SY5Y cells. The experiment in a line: Bright field cell phenotype, other mesenchymal cancer cell lines. Type of assay: cell-based, human. Conditions: 250 or 500 nM, 24 h. As to the method: FIG. 9. Human cancer cell phenotype following MBQ-167 treatment. Triple negative breast cancer (MDA-MB-468), aggressive pancreatic (Mia PaCa-2), ovarian (SKVO3), gastric carcinoma (AGS and NCI-N87) cell lines and a neuroblastoma (SH-SY5Y) cell line were treated with 0, 250 or 500 nM MBQ-167 for 24 h; Representative bright field images are shown for each cell line.
Human breast cancer cells were visualized by bright field microscopy following MBQ-167 treatment. At ≥100 nM, starting at six hours, MBQ-167 induced a loss of polarity in metastatic breast cancer cells. […] On the other hand, non-cancer mammary epithelial MCF10A and epithelial breast cancer MCF-7 cells were resistant to MBQ-167 and remained polarized and attached to each other and the substratum (FIG. 2A).

The test system of assay [2] is caspase-3/7 activity in MDA-MB-231 cells. The assay is described as follows: Caspase-Glo 3/7 apoptosis assay. Type of assay: cell-based, human. Conditions: 0-1000 nM, 24 h, MDA-MB-231 and GFP-HER2-BM. As to the method:
Effect of MBQ-167 on cell survival.
To evaluate whether the cell cycle arrest was accompanied by an increase in apoptosis, the activity of the effector caspases3/7 in whole cell populations (both attached and detached). […] To determine whether MBQ-167 induces anoikis, the relative levels of caspase-3/7 activities were analyzed in the attached and detached MDA-MB-231 cell populations following 24 h at 250 nM MBQ-167.
Apoptosis was measured using a Caspase-Glo3/7 Luminescence Assay Kit as per manufacturer's instructions (Promega, Corp., Madison, Wis., USA). Following treatment of equal numbers of cells with vehicle or MBQ-167 for 24 h, Caspase-3/7 Glo reagent was added and incubated at room temperature for 60 min. Caspase-3/7 activities were determined by quantifying luminescence.

For assay [3], the system named is Rac.
Assay [4] addresses T1, Cdc42 (Homo sapiens, UniProt P60953). The experiment in a line: Cdc42 activation pulldown (p21-binding domain of PAK) and western blot, MDA-MB-231 cells. Type of assay: cell-based. Further details: endogenous in cells; host or cells: MDA-MB-231. The note with it: 24 h, detached cells. (In general: A western blot detects proteins with antibodies after separation by electrophoresis.)

The test system of assay [5] is Rac. The assay is described as follows: Rac activation pulldown (p21-binding domain of PAK) and western blot, MDA-MB-231 cells. In kind it is cell-based, human. Conditions: for decrease in Rac activation: 250 nM, 24 h; for inhibition in Rac activity: 250 or 500 nM, 6 h.
A further assay has as its system PAK1 and PAK4. The assay is described as follows: Western blot of PAK activity, NCI-N87 gastric cancer cells. Type of assay: cell-based, human. Conditions: NCI-N87, 250 or 500 nM; listed as MBQ-167. An excerpt: FIGS. 8A, 8B. The effect of MBQ-167 on survival and PAK activity in NCI-N87 gastric cancer cells.
Assay [6] concerns c-Myc, Bcl-XL, Bcl-2, BAD. The experiment in a line: Expression of oncogenes and survival proteins, MDA-MB-435 cells. Type of assay: cell-based, human. Conditions: 150 nM, 24 h. An excerpt:
Studies from a number of cancer types have shown that Rac/Cdc42/PAK signaling can induce cell survival and evade apoptosis. Therefore, the decreased cell viability and increased apoptosis by MBQ-167, at concentrations that inhibit both Rac and Cdc42, is predicted to be due to dual inhibition of Rac and Cdc42 function.

The next assay deals with GFP-MDA-MB-231 cells. The experiment in a line: Annexin V-Cy3-18 staining. The note with it: 250 or 500 nM, 6 h. Type of assay: cell-based, human. The procedure: FIG. 14. Annexin V staining in response to MBQ-167. GFP-MDA-MB-231 cells growing on coverslips were treated with vehicle or MBQ-167 at 250 or 500 nM for 6 h; Cells were fixed in formaldehyde and stained with Annexin V-Cy3-18; Representative fluorescence micrographs are shown; Arrows indicate red fluorescent Annexin V staining at the membranes of apoptotic cells.
Apoptotic cells were detected by fluorescence microscopy of Annexin V-Cy3-18 stained cells as per manufacturer's instructions (Sigma-Aldrich, St Louis, Mo., USA). Briefly, GFP-MDA-MB-231 cells grown on coverslips were treated with vehicle, or 250 or 500 nM MBQ-167 for 6 h and stained with Annexin V-Cy3-18 in binding buffer (10 mM HEPES/NaOH, pH 7.5, 0.14 M NaCl, 2.5 mM CaCl2) for 15 min at room temperature. Coverslips were washed in binding buffer and fixed with 3.7% paraformaldehyde prior to fluorescence microscopy. Images were digitally acquired from an Olympus inverted fluorescence microscope.

Assay [7] deals with T1, Cdc42. The experiment in a line: G-LISA Cdc42 activity, GFP-HER2-BM cells. Type of assay: cell-based. Further details: endogenous in cells; host or cells: MDA-MB-231. The note with it: 250 nM, 24 h.
The test system of assay [8] is MCF10A mammary epithelial cells. The assay is described as follows: Cell viability assay (CellTiter 96 / MTT), MCF10A. Conditions: 120 h.
In another assay the test system is STAT3. The experiment in a line: Western blot of STAT3 phosphorylation (Y705). In kind it is cell-based, human. The note with it: 24 h, attached and detached MDA-MB-231 and GFP-HER2-BM cells. An excerpt: FIGS. 12A, 12B. Effect of MBQ-167 on STAT3 activation and cell migration in GFP-HER2-BM metastatic cancer cells.
Another assay has as its system Rho. The assay is described as follows: Rho activation pulldown (Rho binding domain of Rhotekin) and western blot, MDA-MB-231 cells. Type of assay: cell-based, human. Conditions: MDA-MB-231, 250 nM; listed as MBQ-167. As to the method:
Additionally, Rac, Cdc42, or […] activation was determined, by pulldowns using the P21-binding domain (PBD) of PAK, or Rho binding domain of Rhotekin as described (2, 16). The GTP bound active Rac, Cdc42, or Rho was detected by Western blot (N=3).

Entries after “also recorded” stand apart in the source; their conditions may differ.

T1 sequence (P60953 whole entry, the tested form may be a part): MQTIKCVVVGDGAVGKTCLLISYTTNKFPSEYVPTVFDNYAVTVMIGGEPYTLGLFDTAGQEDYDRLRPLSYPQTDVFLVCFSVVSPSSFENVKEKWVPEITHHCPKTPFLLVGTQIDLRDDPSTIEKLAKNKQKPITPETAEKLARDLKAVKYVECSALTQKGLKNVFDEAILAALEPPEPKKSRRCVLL

`CCn1c2ccccc2c2cc(-n3nncc3-c3ccccc3)ccc21` [I-1, 9-ethyl-3-(5-phenyl-1H-1,2,3-triazol-1-yl)-9H-carbazole]: the “cell rounding and detachment phenotype” value in assay [1] is recorded as “induced this phenotype”. The “caspase-3/7 activity in whole cell populations” value in [2] is listed as “dose-dependent increase”. In addition, in the assay on Rac [3] (250 nM, 24 h, MCF-7 cells, vehicle = 1.0), the “Rac Activity (Active Rac/Total Rac)” value was determined as 1.075 ± 0.3. Further, the “effect on Rac activity” value in the assay with Rac [3] (MCF-7, 250 nM, listed as MBQ-167) was “insensitive; also recorded: does not affect”. Besides, the “inhibition of Cdc42 activity” value on Cdc42 [4] (250 nM, listed as MBQ-167, […]) was 85%. At Cdc42 [4] (MDA-MB-231, 250 nM), the inhibition at […] turned out to be 78%. The figures for the “decrease in Rac activation” value in the assay with Rac [5] (attached cells) and with Rac [5] (detached cells) were about 25% and about 75%, respectively. The “inhibition in Rac activity” value in the assay on Rac [5] (attached cell population) is 10-20%; with Rac [5] (detached population), 40-50%. For the same compound, the “effect on PAK activity (phospho-PAK)” value in the assay with PAK1 and PAK4 is “inhibits both PAK1 and PAK4 activities; also recorded: significantly decreases”. Further, the “expression of c-Myc, Bcl-XL, Bcl-2” value in assay [6] was “reduced expression”. In assay [6], the “pro-apoptotic protein BAD” value is recorded as “concomitant increase”. Also, the “Annexin V staining” value in the assay with GFP-MDA-MB-231 cells was “increased Annexin V staining”. Moreover, on Cdc42 [7], the “effect on Cdc42 activity” value is listed as “inhibits”. In addition, it took 350 nM to inhibit growth in [8] (Homo sapiens, MCF-10A) by half (GI50). The “effect on viability of MCF7 and MCF-10A cells” value in assay [8] (at the GI50 concentrations of the metastatic cells) is “does not affect the viability”. Further, the “effect on STAT3 activity” value in the assay with STAT3 is recorded as “decreased STAT3 activity”. In addition, the “effect on Rho activation” value in the assay on Rho was “did not affect; also recorded: does not affect; also recorded: without affecting”.

Usually inhibition stands for how much of the control response was suppressed. Broadly, the GI50 is the concentration giving 50% growth inhibition.
